Each structure is given as a SMILES string. Bounds are passed on as bounds.

The text below walks through data of patent US12617777B2, “GPR84 antagonists and uses thereof” (Liminal BioSciences Limited, priority 2021, dated 2026).

In one assay the target is T1, human GPR84 receptor (Homo sapiens, UniProt Q9NQS5).
T1 construct: host or cells: HEK293, transient transfection
In words: Gαi biosensor BRET assay in HEK293 cells (antagonism of ZQ-16). The conditions noted are these: for IC50: HEK293 cells, antagonism of 200 nmol/L ZQ-16; for inhibition at 10 µM: HEK293, single concentration 10 μM (designated F); for inhibition at 2 µM: HEK293, single concentration 2 μM (designated A); for inhibition at 1 µM: HEK293, single concentration 1 μM (designated A°). The assay is classed as cell-based. In short, it runs like this: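 Antagonist mode: test compound 5 min at 37° C, followed by ZQ-16 agonist (200 nmol/L, 5 min, room temperature), in HEK293 cells transfected with GPR84 plus Rluc8-tagged Gαi2, GFP10-Gγ2 and Gβ1. Readout as GFP10/Rluc8 emission ratio after 5 μmol/L coelenterazine 400A, net of Rluc8-only and vehicle signal.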

The next assay deals with neutrophils. In words: Neutrophil migration assay (embelin as chemotactic agent, ATPlite readout). As to conditions: for IC50: Neutrophil, human neutrophils, embelin as chemotactic agent, read-out: Human Neutrophil migration inhibition IC50; for Human Neutrophil migration inhibition - fold potency to Control Compound: normalized to GPR84 antagonist Control Compound (average IC50 131 nM). It counts as cell-based. The protocol:
Neutrophil migration assay. After isolation, neutrophils were resuspended in chemotaxis buffer (DMEM supplemented with 10 mM HEPES) at a concentration of 8.9×10^6 cells/ml. In a 96-well plate, 20 μl of compound solution in chemotaxis buffer is added to 180 μl of cell suspension. After incubation at 37° C. for 30 minutes, 75 μl of cell suspension is transferred in the upper chamber of a 5 μm pore size Corning HTS transwell. 235 μl of chemotaxis buffer containing the chemotactic agent (embelin) is added to the lower chamber of the transwell. After a 60-minute incubation time at 37° C. in 5%0 C02, the upper chamber of the transwell is removed and the plate is centrifuged at 1500 rpm for 6 minutes. Supermatant is removed and cells resuspended in 100 ul of PBS. ATP content was assessed using ATPlite Luminescence Assay System® according to manufacturer instructions (Perkin Elmer, Buckinghamshire, UK). Briefly, 50 μl of ATPlite buffer and 50 μl of lysis solution is added to the lower chamber of the Transwells. After incubation at room temperature, in the dark with constant agitation for 5 minutes, 150 μl of cell lysate is transferred in a 96 wells white plate and incubated for 10 minutes in the dark. Luminescence is read on a TECAN plate reader, Infinite M1000 (Tecan, Morrisville, NC).
The compound numbers correspond to the compound numbers in Table 1. […] Normalization of the results takes the donor's variation into account.

T1 sequence (Q9NQS5 whole entry): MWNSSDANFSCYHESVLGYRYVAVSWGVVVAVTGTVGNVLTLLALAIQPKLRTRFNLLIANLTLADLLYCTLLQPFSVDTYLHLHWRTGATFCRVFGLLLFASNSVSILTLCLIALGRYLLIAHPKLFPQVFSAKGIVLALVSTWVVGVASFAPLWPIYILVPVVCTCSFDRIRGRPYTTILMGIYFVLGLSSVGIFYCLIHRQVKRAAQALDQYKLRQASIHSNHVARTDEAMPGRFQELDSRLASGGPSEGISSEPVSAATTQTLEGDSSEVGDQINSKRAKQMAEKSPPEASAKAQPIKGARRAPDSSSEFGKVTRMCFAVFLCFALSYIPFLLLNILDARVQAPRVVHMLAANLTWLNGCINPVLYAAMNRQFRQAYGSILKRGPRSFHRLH

With `Cc1cc(C#CCN2CC(C)(C)C2)ccc1-c1cn(CC2CCCCO2)nn1` (centres unmarked) [Compound I-119], the IC50 against human GPR84 receptor fell in the range of 1000 to 3000 nM; in the assay on neutrophils it was 300 to 1000 nM. For the same compound, the “Human Neutrophil migration inhibition - fold potency to Control Compound” value in the assay on neutrophils is “C (IC50≤0.5-fold relative to Control Compound)”.
One may read the inhibition as how much of the control response was suppressed. Read a low inhibition as little suppression. `Cc1cc(N2CCN(Cc3ccccn3)CC2)ccc1-c1cn(CC2CCC(C)(C)CO2)nn1` (centres unmarked) [Compound I-562]: at human GPR84 receptor, the inhibition at 10 µM was over 75% and the IC50 is at most 300 nM. Moreover, in the assay on neutrophils, the IC50 is at most 300 nM and the “Human Neutrophil migration inhibition - fold potency to Control Compound” value is reported as “A (IC50 of >1.0-fold relative to Control Compound)”.
At human GPR84 receptor, `Cc1cc(N2CC(C)(CNc3ccccn3)C2)ccc1-c1cn(CC2CCCCO2)nn1` (centres unmarked) [Compound I-464] registered an inhibition at 2 µM of over 75% and an IC50 of 300 to 1000 nM. In addition, in the assay on neutrophils, the IC50 was at most 300 nM and the “Human Neutrophil migration inhibition - fold potency to Control Compound” value is “C (IC50≤0.5-fold relative to Control Compound)”.
On human GPR84 receptor, `Cc1cc(C#CCN2CCC(F)(F)CC2)ccc1-c1cn(CC2CCCCO2)nn1` (centres unmarked) [Compound I-118] registered an inhibition at 10 µM of over 75% and an IC50 of over 3000 nM. For the same compound, in the assay on neutrophils, the IC50 was at most 300 nM and the “Human Neutrophil migration inhibition - fold potency to Control Compound” value is given as “C (IC50≤0.5-fold relative to Control Compound)”.
Consider `Cc1cc(C#CC2(O)CCCCC2)ccc1-c1cn(CC2CCCCO2)nn1` (centres unmarked) [Compound I-94], for which, on human GPR84 receptor, the inhibition at 10 µM was over 75% and the IC50 was in the range of 1000 to 3000 nM. For the same compound, in the assay on neutrophils, the IC50 was in the range of 1000 to 3000 nM and the “Human Neutrophil migration inhibition - fold potency to Control Compound” value is reported as “C (IC50≤0.5-fold relative to Control Compound)”.
Take `Cc1cc(C#CCNC(=O)OC(C)(C)C)ccc1-c1cn(CC2CCCCO2)nn1` (centres unmarked) [Compound I-177]: on human GPR84 receptor, the inhibition at 10 µM was 50 to 75% and the IC50 lay in the range of 1000 to 3000 nM. In the assay with neutrophils, the IC50 was at most 300 nM and the “Human Neutrophil migration inhibition - fold potency to Control Compound” value is “A (IC50 of >1.0-fold relative to Control Compound)”.
Take `CO[C@H](c1cn(C[C@@H]2CCCCO2)nn1)c1cc(C#CC2CC2)ccc1C` [Compound I-512]: on human GPR84 receptor, the inhibition at 2 µM was over 75% and the IC50 was 300 to 1000 nM. For the same compound, in the assay on neutrophils, the IC50 is at most 300 nM and the “Human Neutrophil migration inhibition - fold potency to Control Compound” value is on record as “C (IC50≤0.5-fold relative to Control Compound)”.
As for `CN(C)c1cc(N2CC(C)(CO)C2)ccc1-c1cn(CC2CC(C)(C)CO2)nn1` (centres unmarked) [Compound I-499], at human GPR84 receptor, the inhibition at 10 µM was over 75% and the IC50 fell in the range of 300 to 1000 nM. Further, in the assay with neutrophils, the IC50 was at most 300 nM and the “Human Neutrophil migration inhibition - fold potency to Control Compound” value was “A (IC50 of >1.0-fold relative to Control Compound)”.
Taken in the same sequence, the figures for `CN(C)c1cc(C#CCNc2ccccc2)ccc1-c1cn(CC2CC(C)(C)CO2)nn1` (centres unmarked) [Compound I-460] were over 75%, 300 to 1000 nM, at most 300 nM and “A (IC50 of >1.0-fold relative to Control Compound)”.
In the same order, the values of `Cc1ccc(C#CC2CC2)cc1-n1nc(CC2CCCCO2)oc1=O` (centres unmarked) [Compound I-14] are over 75%, 1000 to 3000 nM, at most 300 nM and “A (IC50 of >1.0-fold relative to Control Compound)”.
In the case of `Cc1cc(C#CCNCc2ccccc2)ccc1-c1cn(CC2CCCCO2)nn1` (centres unmarked) [Compound I-86], the IC50 against human GPR84 receptor lay within 300 to 1000 nM. In addition, in the assay on neutrophils, the IC50 lay in the range of 300 to 1000 nM and the “Human Neutrophil migration inhibition - fold potency to Control Compound” value is given as “C (IC50≤0.5-fold relative to Control Compound)”.
`CN(C)c1cc(N2CC(C)(CO)C2)ccc1-c1cn(C[C@H]2CC(C)(C)CO2)nn1` (stereo in doubt) [Compound I-588]: at human GPR84 receptor, the inhibition at 1 µM is over 75% and the IC50 is at most 300 nM. Further, in the assay on neutrophils, the IC50 is at most 300 nM and the “Human Neutrophil migration inhibition - fold potency to Control Compound” value is recorded as “A (IC50 of >1.0-fold relative to Control Compound)”.
At human GPR84 receptor, `CO[C@@H](c1cn(C[C@H]2CCCCO2)nn1)c1cc(C#CC2CC2)ccc1C` [Compound I-510] gave an inhibition at 2 µM of 50 to 75% and an IC50 of 300 to 1000 nM. In addition, in the assay on neutrophils, the IC50 is at most 300 nM and the “Human Neutrophil migration inhibition - fold potency to Control Compound” value is recorded as “B (IC50 of >0.5-≤1.0-fold relative to Control Compound)”.
As to `CN(C)c1cc(N2CC(C)(CO)C2)ccc1-c1cn(C[C@@H]2CC(C)(C)CO2)nn1` (stereo in doubt) [Compound I-589], on human GPR84 receptor, the inhibition at 1 µM is over 75% and the IC50 was at most 300 nM. For the same compound, in the assay on neutrophils, the IC50 was at most 300 nM and the “Human Neutrophil migration inhibition - fold potency to Control Compound” value is given as “A (IC50 of >1.0-fold relative to Control Compound)”.
Take `CC(C)Oc1cc(C#CC2CC2)cnc1-c1cn(CC2OCC(C)(C)CO2)nn1` [Compound I-651]: on human GPR84 receptor, the inhibition at 2 µM was over 75% and the IC50 was at most 300 nM. In the assay on neutrophils, the IC50 was at most 300 nM and the “Human Neutrophil migration inhibition - fold potency to Control Compound” value is “A (IC50 of >1.0-fold relative to Control Compound)”.
On to `CCc1cc(N2CCN(Cc3ccccn3)CC2)cnc1-c1cn(C[C@H]2CCCCO2)nn1` [Compound I-459], for which, on human GPR84 receptor, the inhibition at 10 µM is over 75% and the IC50 was in the range of 1000 to 3000 nM. Further, in the assay on neutrophils, the IC50 is at most 300 nM and the “Human Neutrophil migration inhibition - fold potency to Control Compound” value was “C (IC50≤0.5-fold relative to Control Compound)”.
As for `FC(F)(F)c1cc(C#CC2CC2)ccc1-c1cn(CC2CCCCO2)nn1` (centres unmarked) [Compound I-81], on human GPR84 receptor, the inhibition at 10 µM lay in the range of 50 to 75% and the IC50 was over 3000 nM. In the assay on neutrophils, the IC50 fell in the range of 300 to 1000 nM and the “Human Neutrophil migration inhibition - fold potency to Control Compound” value is “C (IC50≤0.5-fold relative to Control Compound)”.
On human GPR84 receptor, `Cc1cc(N2CC(C)(N(C)Cc3ccccn3)C2)ccc1-c1cn(CC2CCCCO2)nn1` (centres unmarked) [Compound I-451] registered an inhibition at 10 µM of over 75% and an IC50 of 300 to 1000 nM. Moreover, in the assay with neutrophils, the IC50 was at most 300 nM and the “Human Neutrophil migration inhibition - fold potency to Control Compound” value is “A (IC50 of >1.0-fold relative to Control Compound)”.
The compound `c1ccc(COc2ccc(-c3cn(CC4CCCCO4)nn3)cc2)cc1` (centres unmarked) [Compound I-53] gave an inhibition at 25 µM against human GPR84 receptor (HEK293, single concentration 25 μM (designated I)) of at most 25%.
On human GPR84 receptor, `Cc1cc(N2CC(C)(CO)C2)cnc1-c1cn(CCc2ncccn2)nn1` [Compound I-695] yielded an inhibition at 10 µM of at most 25%.
For `CC(C)Oc1cc(C#CCN2CC(C)(C)C2)cnc1-c1cn(CC2OCC(C)(C)CO2)nn1` [Compound I-676], on human GPR84 receptor, the inhibition at 2 µM was over 75% and the IC50 was at most 300 nM.
Turning to `Cc1cc(C#CCNc2ccccc2)ccc1-c1cn(CC2CCCO2)nn1` (centres unmarked) [Compound I-62], at human GPR84 receptor, the inhibition at 10 µM is over 75% and the IC50 is over 3000 nM.
`Cc1cc(C#CC2CC2)ccc1-c1nn(CC2CCCCO2)c(=O)o1` (centres unmarked) [Compound I-15] returned an inhibition at 10 µM against human GPR84 receptor of at most 25%.
For the compound `COC(c1cccc(C#CCO)c1)c1cn(CC2CCCCO2)nn1` (centres unmarked) [Compound I-491], the inhibition at 10 µM at human GPR84 receptor is at most 25%.
Compound `OCc1cc(C#CC2CC2)ccc1-c1cn(CC2CCCCO2)nn1` (centres unmarked) [Compound I-216] registered an inhibition at 10 µM on human GPR84 receptor of at most 25%.
With `Cc1cc(N2CCN(Cc3ccccn3)C(=O)C2)ccc1-c1cn(CC2OCC(C)(C)CO2)nn1` [Compound I-752], at human GPR84 receptor, the inhibition at 10 µM lay in the range of 25 to 50%.
The same measure, in the same setting: in the case of `CC(C)OCC#Cc1cnc(-c2cn(CC3OCC(C)(C)CO3)nn2)c(OC(C)C)c1` [Compound I-846] it was at most 25%; in that of `Cc1cc(C#CC2CC2)ccc1-c1cn(CC2CCCOC2)nn1` (centres unmarked) [Compound I-364], 25 to 50%.
`Cc1ccc(C#CC2CC2)cc1-c1noc(CC2CCCCO2)n1` (centres unmarked) [Compound I-625] showed an inhibition at 10 µM against human GPR84 receptor of 50 to 75%.
At human GPR84 receptor, `Cc1cc(C#CCNC2CC2)ccc1-c1cn(CC2OCC(C)(C)CO2)nn1` [Compound I-697] had an inhibition at 10 µM of over 75% and an IC50 of 300 to 1000 nM.
On to `Cc1cc(N2CCN(C(=O)c3ccccn3)CC2)ccc1-c1cn(CC2CCCCO2)nn1` (centres unmarked) [Compound I-534], for which the inhibition at 10 µM on human GPR84 receptor was at most 25%.
On human GPR84 receptor, `COC(c1cn(CC2CC(C)(C)CO2)nn1)c1cc(C#CC2CC2)ccc1C` (centres unmarked) [Compound I-642] displayed an inhibition at 10 µM of over 75% and an IC50 of 1000 to 3000 nM.
The compound `COc1ccc(-c2cn(CC3CCCCO3)nn2)c(C)c1` (centres unmarked) [Compound I-412] registered an inhibition at 10 µM against human GPR84 receptor of at most 25%.
On human GPR84 receptor, `CCN(CC)c1cc(N2CC(C)(CO)C2)c(F)cc1-c1cn(CC2OCC3(CC3)CO2)nn1` [Compound I-801] came in with an inhibition at 2 µM of over 75% and an IC50 of at most 300 nM.
With `Cc1ccc(-c2ccc(-c3cn(C[C@H]4COCCO4)nn3)cc2)cn1` [Compound I-25], at human GPR84 receptor (HEK293, single concentration 12.5 μM (designated G)), the inhibition at 12.5 µM was at most 25%.
